From patent US8722671B2, “Isoquinoline derivatives” (Sanofi, priority 2005, dated 2014)

Molecular target: T1, ROCKII or ROKα (Homo sapiens, UniProt O75116)
T1 construct: purchased Upstate 14-451
Assay: Determination of Rho kinase inhibition (33P-ATP Streptavidin Flash Plate assay)
Format: biochemical
Conditions: ATP 40 μM, activity denoted as pIC50 class
Protocol: Determination of Rho Kinase Inhibition
To measure Rho-kinase inhibition, IC50 values were determined according to the following protocol:
Buffer: 25 mM Tris pH7.5; 0.02% BSA; 5% Glycerol; 0.008% Triton X100; 2% DMSO, 1 mM DTT; 1 mM MgCl2; 0.5 μCi/well γ^33P ATP
Enzyme: ROCKII or ROKα) (Upstate, Catalog #14-451 Lot #24880U) 0.1 ng/μl
Final concentration of ATP in reaction mixture 40 μM
Biotinylated substrate, diluted to 0.25 μM with buffer described above (without ATP)
• 1. 10 μl Tris buffer (±Inhibitor) • 2. Add 30 μl of enzyme solution • 3. Start the reaction with 30 μL of mix substrate/ATP/ATP33 • 4. Incubate for 20 min at room temperature • 5. Stop reaction with 30 μL of 50 mM EDTA • 6. Transfer 50 μL of stopped solution to Streptavidin Flash Plate plus, Perkin Elmer, SMP 103A • 7. Incubate for 30 min at RT • 8. Wash 4 times with 300 μl of PBS/0.1% Tween 20 • 9. Radioactivity in the well was determined

T1 sequence (O75116 11-552 limits assumed): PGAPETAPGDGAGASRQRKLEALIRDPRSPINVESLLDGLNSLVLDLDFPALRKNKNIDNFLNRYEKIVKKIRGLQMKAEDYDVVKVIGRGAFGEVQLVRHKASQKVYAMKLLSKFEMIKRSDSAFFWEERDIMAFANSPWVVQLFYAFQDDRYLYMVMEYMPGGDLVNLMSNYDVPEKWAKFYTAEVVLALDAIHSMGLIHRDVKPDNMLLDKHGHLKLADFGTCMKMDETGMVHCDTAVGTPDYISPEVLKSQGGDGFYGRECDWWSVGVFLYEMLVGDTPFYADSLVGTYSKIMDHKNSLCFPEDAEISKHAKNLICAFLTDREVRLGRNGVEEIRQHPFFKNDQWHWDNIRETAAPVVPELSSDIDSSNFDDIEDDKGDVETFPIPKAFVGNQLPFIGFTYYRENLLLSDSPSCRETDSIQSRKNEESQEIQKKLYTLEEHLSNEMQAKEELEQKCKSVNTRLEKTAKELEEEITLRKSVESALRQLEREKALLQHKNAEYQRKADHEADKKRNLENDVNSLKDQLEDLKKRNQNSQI

SMILES	IC50
Brc1c(OC2CCNCC2)ccc2cnccc12.Cl [Compound 41]	++++ (6.0≦pIC50)
Cl.Ic1c(OC2CCNCC2)ccc2cnccc12 [Compound 44]	++++ (6.0≦pIC50)
O=C(O)C(F)(F)F.c1ccc2oc(-c3c(OC4CCNCC4)ccc4cnccc34)cc2c1 [Compound 59]	++++ (6.0≦pIC50)
OCc1cccc(-c2c(OC3CCNCC3)ccc3cnccc23)c1 [Compound 67]	+++ (5.0≦pIC50<6.0)
c1ccc(-c2cc3cnccc3cc2OC2CCNCC2)cc1 [Compound 81]	++++ (6.0≦pIC50)
O=C(O)C(F)(F)F.c1ccc(C(CN2CCC(Oc3ccc4cnccc4c3)CC2)c2ccccc2)cc1 [Compound 100]	+++ (5.0≦pIC50<6.0)
COc1ccc2cc(CN3CCC(Oc4ccc5cnccc5c4)CC3)ccc2c1.O=C(O)C(F)(F)F [Compound 120]	++++ (6.0≦pIC50)
Cc1cc(OC2CCNCC2)c(C)c2ccncc12.Cl [Compound 133]	++++ (6.0≦pIC50)
Cc1c(OC2CCNCC2)cc2ccncc2c1C.Cl [Compound 134]	+++ (5.0≦pIC50<6.0)
O=C(O)C(F)(F)F.c1cc2cc(OC3CCCNC3)ccc2cn1 (stereo not drawn) [Compound 145]	+++ (5.0≦pIC50<6.0)
Cl.Clc1cncc2ccc(OC3CCNCC3)cc12 [Compound 156, 4-Chloro-6-(piperidin-4-yloxy)-isoquinoline hydrochloride]	++++ (6.0≦pIC50)
CCc1cncc2ccc(OC3CCNCC3)cc12.Cl [Compound 266, 4-Ethyl-6-(piperidin-4-yloxy)-isoquinoline]	+++ (5.0≦pIC50<6.0)
Cl.Clc1cc(OC2CCNCC2)cc2ccncc12 [Compound 269, 8-Chloro-6-(Piperidin-4-yloxy)-isoquinoline hydrochloride]	++++ (6.0≦pIC50)
Clc1cc2cnccc2c(Cl)c1OC1CCNCC1 [Compound 378, 5,7-Dichloro-6-(piperidin-4-yloxy)-isoquinoline]	++++ (6.0≦pIC50)

Further lines, results first:

IC50	SMILES
+++ (5.0≦pIC50<6.0)	c1ccc(Cc2c(OC3CCNCC3)ccc3cnccc23)cc1 [Compound 29, 5-Benzyl-6-(piperidin-4-yloxy)-isoquinoline]
++++ (6.0≦pIC50)	COc1ccc(-c2c(OC3CCNCC3)ccc3cnccc23)cc1N [Compound 72]
+++ (5.0≦pIC50<6.0)	FC(F)(F)CCN1CCC(Oc2ccc3cnccc3c2)CC1.O=C(O)C(F)(F)F [Compound 111]
++++ (6.0≦pIC50)	CN1CCCC(COc2ccc3cnccc3c2Br)C1.O=C(O)C(F)(F)F (stereo not drawn) [Compound 138]
++++ (6.0≦pIC50)	COc1cc(Nc2cc3cc(OC4CCNCC4)ccc3cn2)cc(OC)c1OC [Compound 228]
++++ (6.0≦pIC50)	Cl.c1cc2c(cc1Nc1cc3cc(OC4CCNCC4)ccc3cn1)OCO2 [Compound 261]
+++ (5.0≦pIC50<6.0)	COc1cccc(Nc2cc3c(C4CC4)c(OC4CCNCC4)ccc3cn2)c1.Cl [Compound 265]
